Here are results for 2 compounds from patent publication US12458647B2, “Macrocyclic derivative and use thereof” (Guangzhou Joyo Pharmatech Co., Ltd., priority 2022, dated 2025).

Data set [1] is described as follows: Pharmacokinetics test in mice. To be noted: male CD-1 mice. It is filed as in vivo, male CD-1 (ICR) mice. How it is done: The pharmacokinetic behavior of the compounds of the present disclosure was evaluated in male CD-1 (ICR) mice.
The compounds to be tested were dissolved in the vehicle (5% DMSO/10% solutol/85% water). Four male CD-1 mice were divided into 2 groups of 2 mice each. Group 1 mice were administered a single intravenous bolus injection of the compound at a dose of 1 mg/kg. Group 2 mice were administered a single dose of the compound by gavage at a dose of 10 mg/kg. Whole blood samples were collected at 0.083 (intravenous bolus group only), 0.25, 0.5, 1, 2, 4, 8 and 24 hours after dosing. The LC-MS/MS method was used to determine the concentration of the test compound in whole blood samples.

Data set [2] concerns human lung bronchial benign NCI—H727 cells. As to the kind of experiment: In vivo pharmacodynamic study, NCI-H727 subcutaneous xenograft tumor model in BALB/c nude mice. To be noted: gavage once daily. How it is done: To study the in vivo efficacy of a compound of the present disclosure on human lung bronchial benign NCI—H727 cells in a subcutaneous xenograft tumor model in BALB/c nude mice.
Laboratory animals: Female BALB/c nude mice, 6-8 weeks old, weighing 18-22 g; supplier Beijing Vital River Laboratory Animal Technology Co., Ltd.
(1) Cell culture: Human lung bronchial benign tumor cells were cultured in vitro in a monolayer, and the culture conditions were 10% fetal bovine serum added to Gibco RMPI1640 medium, incubated at 37° C. in a 5% CO2 incubator. Routine passage was performed twice a week with trypsin-EDTA for digestion. When the cell saturation was 80%-90% and the required number was reached, the cells were collected, counted, and inoculated.
(2) Tumour cell inoculation and grouping: 0.2 mL (2×10^6) of NCI—H727 cells (Matrigel was added in a volume ratio of 1:1) were inoculated subcutaneously into the right back of each mouse, and dosing was initiated when the mean tumor volume reached approximately 134 mm^3, with 6 animals in each group.
The vehicle was 5% DMSO/10% solutol/85% water. Control group: The vehicle was administered twice daily by gavage at a dose of 10 μL/g; treatment group: After dissolving the test compound in the vehicle, the compound was administered by gavage once daily.
(3) The tumor diameter was measured with a vernier caliper twice weekly, and the tumor volume(V) was calculated. The formula is: V=0.5a×b^2, where a and b are the long and short diameters of the tumor, respectively. The tumor inhibitory efficacy of the test compound was evaluated by the tumor growth inhibition rate (TGI). The calculation formula is: TGI %=1−(Mean tumor volume at the end of dosing in a treatment group−Mean tumor volume at the start of dosing in this treatment group)/(Mean tumor volume at the end of treatment in the vehicle control group−Mean tumor volume at the start of treatment in the vehicle control group)×100%.

Data set [3] relates to PK-59 cell line. As to the kind of experiment: In vitro cell proliferation experiment (5 days), PK-59. The data set is classed as cell-based. The following applies: PK-59, 5 days; read-out: Inhibitory Activity IC50. How it is done:
RPMI 1640 medium, DMEM, Ham's F12 medium, F12K medium, IMDM and penicillin/streptomycin antibiotics were purchased from Gibco, fetal bovine serum was purchased from Hyclone, Envision multilabel plate reader (PerkinElmer). […]
The test compound was diluted by 5-fold to 8 concentrations with a pipette, i.e., from 2 mM to 25.6 nM, and replicate wells were set up for the experiment. […] Another cell plate was prepared, and the signal value was read as the maximum value (the maximum value in the following equation) on the day of dosing for data analysis.
50 μL of cell viability chemiluminescent detection reagent was added to the cell plate and incubated at room temperature for 30 minutes to stabilize the luminescence signal. A multilabel plate reader was used for reading. […]

[4] abbreviates: intravenous bolus 1 mg/kg, whole blood.
Setting [5] is: 25 mg/kg on Days 1-6 and 1 mg/kg on Days 7-21, Day 21.

Take `CCn1c(-c2cc(N3CCN(C)CC3)cnc2C(C)OC)c2c3cc(ccc31)-c1csc(n1)CC(NC(=O)C1CC1C)C(=O)N1NC(C(=O)OCC(C)(C)C2)C2CC1C2` (single isomer, unassigned) [Compound 7A]: the “bioavailability (F)” value in data set [1] (gavage 10 mg/kg vs i.v. 1 mg/kg) was determined as 54.3%. For the same compound, in data set [1] (gavage 10 mg/kg, whole blood), the AUC0-last is on record as 17,119 h·nmol/mL and the “time to maximum concentration (τmax)” value worked out at 3.0 h. Further, in data set [1] (setting [4]), the “apparent volume of distribution at steady state (Vd)” value is given as 2.18 L/kg, the “area under the whole blood concentration-time curve (AUC0-last)” value worked out at 3.160 µM·h, the “elimination half-life (T1/2)” value is listed as 4.29 h and the “whole blood clearance (C1)” value is on record as 6.29 mL/min/kg.

What is called IC50 is the concentration needed to halve the response being measured. On to `CCn1c(-c2cc(N3CCN(C)CC3)cnc2C(C)OC)c2c3cc(ccc31)-c1csc(n1)CC(NC(=O)C1C(C)C1C)C(=O)N1NC(C(=O)OCC(C)(C)C2)C2CC1C2` (single isomer, unassigned) [Compound 6A], for which the “Tumour Volume (mm^3) Day 1” value is on record as 134.6 mm^3 in data set [2] (5 mg/kg, Day 1); 134.5 mm^3 in data set [2] (25 mg/kg on Days 1-6 and 1 mg/kg on Days 7-21, Day 1). Besides, the “Tumour Volume (mm^3) Day 7” value in data set [2] (5 mg/kg, Day 7) is listed as 86.5 mm^3; in data set [2] (25 mg/kg on Days 1-6 and 1 mg/kg on Days 7-21, Day 7), 76.8 mm^3. Also, the “Tumour Volume (mm^3) Day 14” value in data set [2] (5 mg/kg, Day 14) was 78.5 mm^3; in data set [2] (25 mg/kg on Days 1-6 and 1 mg/kg on Days 7-21, Day 14), 71.1 mm^3. Besides, the “TGI (%)” value in data set [2] (5 mg/kg, Day 21) was 104.4%; in data set [2] (setting [5]) it was 103.2%. For the same compound, the “Tumour Volume (mm^3) Day 21” value is 51.6 mm^3 in data set [2] (5 mg/kg, Day 21) and 75.1 mm^3 in data set [2] (setting [5]). For the same compound, in data set [3], the IC50 came out at 2.3 nM.
